Data on 25 compounds can be found in patent US20070049593A1 (priority 2004, published 2007).

Where a name gives a salt, the structure may show the parent alone.

The test deals with T1, HCV polymerase (Hepatitis C virus genotype 1b, UniProt P26663).
T1 construct: a region encoding NS5B (J Virol 1991 March, 65(3), 1105-13, 544 amino acids after deletion of 47 amino acids on the C-terminal); 6xHis (C); made in house; host or cells: Escherichia coli
T1 sequence (P26663 2420-2963): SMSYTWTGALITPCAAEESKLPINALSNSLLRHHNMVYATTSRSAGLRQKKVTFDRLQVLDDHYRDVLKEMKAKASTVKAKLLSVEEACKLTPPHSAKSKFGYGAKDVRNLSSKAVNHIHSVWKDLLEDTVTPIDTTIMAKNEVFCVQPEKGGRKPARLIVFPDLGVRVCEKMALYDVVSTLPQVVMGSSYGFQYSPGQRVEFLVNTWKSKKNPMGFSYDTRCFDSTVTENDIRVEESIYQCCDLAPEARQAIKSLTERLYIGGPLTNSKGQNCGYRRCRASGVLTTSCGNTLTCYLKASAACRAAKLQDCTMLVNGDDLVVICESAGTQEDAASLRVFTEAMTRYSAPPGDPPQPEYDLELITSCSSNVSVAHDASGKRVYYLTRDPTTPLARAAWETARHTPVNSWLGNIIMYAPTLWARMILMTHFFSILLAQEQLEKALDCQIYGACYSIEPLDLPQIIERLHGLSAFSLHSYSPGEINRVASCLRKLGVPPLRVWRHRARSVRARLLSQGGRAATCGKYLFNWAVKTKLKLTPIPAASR
The experiment in a line: biochemical. On the set-up: species or system HCV BK strain. The method, boiled down: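 Recombinant HCV BK-strain NS5B (C-terminal 47 aa deleted, His6-tagged, E. coli), 0.5 μg/ml, run with 5 μg/ml in vitro-transcribed RNA template (polyU/3′X), ATP/GTP/CTP 50 μM, UTP 2 μM plus [3H]UTP, pH 7.5, 25° C, 90 min. TCA-precipitated RNA counted by scintillation; IC50 from activity with vs without compound.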
Broadly, the IC50 is the midpoint of a concentration-inhibition curve. Higher therefore signals weaker potency. The compound `Cc1cccc(COc2ccc3c(c2)N(CCN(C)C)CCn2c-3c(C3CCCCC3)c3ccc(C(=O)O)cc32)n1` [Example 1-589, 13-cyclohexyl-5-(2-dimethylaminoethyl)-3-(6-methylpyridin-2-ylmethoxy)-6,7-dihydro-5H-benzo[5,6][1,4]diazepino[7,1-a]indole-10-carboxylic acid trihydrochloride] came in with a concentration for half-maximal inhibition (IC50) of less than 100 nM.
Regarding `CNC(=O)c1cccc(COc2ccc3c(c2)N(CCN(C)C)CCn2c-3c(C3CCCCC3)c3ccc(C(=O)O)cc32)c1` [Example 1-590, 13-cyclohexyl-5-(2-dimethylaminoethyl)-3-(3-methylcarbamoylbenzyloxy)-6,7-dihydro-5H-benzo[5,6][1,4]diazepino[7,1-a]indole-10-carboxylic acid dihydrochloride], the IC50 was less than 100 nM.
`CN(C)CCN1CCn2c(c(C3CCCCC3)c3ccc(C(=O)O)cc32)-c2ccc(OCc3cccc(N(C)C)c3)cc21` [Example 1-591, 13-cyclohexyl-3-(3-dimethylaminobenzyloxy)-5-(2-dimethylaminoethyl)-6,7-dihydro-5H-benzo[5,6][1,4]diazepino[7,1-a]indole-10-carboxylic acid trihydrochloride] came in with an IC50 of less than 100 nM.
The value for `CCOc1ccc2c(c1)N(C)CCn1c-2c(C2CCCCC2)c2ccc(C(=O)O)cc21` [Example 1-592, 13-cyclohexyl-3-ethoxy-5-methyl-6,7-dihydro-5H-benzo[5,6][1,4]diazepino[7,1-a]indole-10-carboxylic acid] was less than 100 nM; that for `CN1CCn2c(c(C3CCCCC3)c3ccc(C(=O)O)cc32)-c2ccc(OCc3ccccc3)cc21` [Example 1-593, 3-benzyloxy-13-cyclohexyl-5-methyl-6,7-dihydro-5H-benzo[5,6][1,4]diazepino[7,1-a]indole-10-carboxylic acid] was less than 100 nM.
For the compound `COc1ccc2c(c1)N(C)CCn1c-2c(C2CCCCC2)c2ccc(C(=O)O)cc21` [Example 1-594, 13-cyclohexyl-3-methoxy-5-methyl-6,7-dihydro-5H-benzo[5,6][1,4]diazepino[7,1-a]indole-10-carboxylic acid], the IC50 is less than 100 nM.
`O=C(O)c1ccc2c(C3CCCCC3)c3n(c2c1)CCN(CCN1CCCCC1)c1cc(OCc2ccccn2)ccc1-3` [Example 1-595, 13-cyclohexyl-5-[2-(piperidin-1-yl)ethyl]-3-(pyridin-2-ylmethoxy)-6,7-dihydro-5H-benzo[5,6][1,4]diazepino[7,1-a]indole-10-carboxylic acid trihydrochloride] yielded an IC50 of less than 100 nM.
`CCOc1ccc2c(c1)N(C)CCn1c-2c(C2CCCCC2)c2ccc(C(=O)NC(C)(C)C(=O)Nc3ccc(/C=C/C(=O)O)cc3)cc21` [Example 1-615, (E)-3-(4-{2-[(13-cyclohexyl-3-ethoxy-5-methyl-6,7-dihydro-5H-benzo[5,6][1,4]diazepino[7,1-a]indole-10-carbonyl)amino]-2-methylpropionylamino}phenyl)acrylic acid]: the IC50 was less than 100 nM.
Take `CCOc1ccc2c(c1)N(C)CCn1c-2c(C2CCCCC2)c2ccc(C(=O)NC3(C(=O)Nc4cccc(/C=C/C(=O)O)c4)CCC3)cc21` [Example 1-616, (E)-3-[3-({1-[(13-cyclohexyl-3-ethoxy-5-methyl-6,7-dihydro-5H-benzo[5,6][1,4]diazepino[7,1-a]indole-10-carbonyl)amino]cyclobutanecarbonyl}amino)phenyl]acrylic acid]: the concentration for half-maximal inhibition (IC50) was less than 100 nM.
Regarding `CCOc1ccc2c(c1)N(C)CCn1c-2c(C2CCCCC2)c2ccc(C(=O)NC3(C(=O)Nc4ccc(/C=C/C(=O)O)cc4OC)CCC3)cc21` [Example 1-617, (E)-3-[4-({1-[(13-cyclohexyl-3-ethoxy-5-methyl-6,7-dihydro-5H-benzo[5,6][1,4]diazepino[7,1-a]indole-10-carbonyl)amino]cyclobutanecarbonyl}amino)-3-methoxyphenyl]acrylic acid], the IC50 was less than 100 nM.
`CCOc1ccc2c(c1)N(C)CCn1c-2c(C2CCCCC2)c2ccc(C(=O)NC3(C(=O)Nc4ccc(Cl)c(/C=C/C(=O)O)c4)CCC3)cc21` [Example 1-618, (E)-3-[2-chloro-5-({1-[(13-cyclohexyl-3-ethoxy-5-methyl-6,7-dihydro-5H-benzo[5,6][1,4]diazepino[7,1-a]indole-10-carbonyl)amino]cyclobutanecarbonyl}amino)phenyl]acrylic acid] yielded an IC50 of less than 100 nM.
`CCOc1ccc2c(c1)N(C)CCn1c-2c(C2CCCCC2)c2ccc(C(=O)NC3(C(=O)Nc4ccc(OC)c(/C=C/C(=O)O)c4)CCC3)cc21` [Example 1-619, (E)-3-[5-({1-[(13-cyclohexyl-3-ethoxy-5-methyl-6,7-dihydro-5H-benzo[5,6][1,4]diazepino[7,1-a]indole-10-carbonyl)amino]cyclobutanecarbonyl}amino)-2-methoxyphenyl]acrylic acid] yielded an IC50 of less than 100 nM.
The value for `CCOc1ccc2c(c1)N(C)CCn1c-2c(C2CCCCC2)c2ccc(C(=O)NC3(C(=O)Nc4ccc(C)c(/C=C/C(=O)O)c4)CCC3)cc21` [Example 1-620, (E)-3-[5-({1-[(13-cyclohexyl-3-ethoxy-5-methyl-6,7-dihydro-5H-benzo[5,6][1,4]diazepino[7,1-a]indole-10-carbonyl)amino]cyclobutanecarbonyl}amino)-2-methylphenyl]acrylic acid] was less than 100 nM; that for `CCOc1ccc2c(c1)N(C)CCn1c-2c(C2CCCCC2)c2ccc(C(=O)NC3(C(=O)Nc4ccc(/C=C/C(=O)O)c(C)c4)CCC3)cc21` [Example 1-621, (E)-3-[4-({1-[(13-cyclohexyl-3-ethoxy-5-methyl-6,7-dihydro-5H-benzo[5,6][1,4]diazepino[7,1-a]indole-10-carbonyl)amino]cyclobutanecarbonyl}amino)-2-methylphenyl]acrylic acid] was less than 100 nM.
Consider `CCOc1ccc2c(c1)N(C)CCn1c-2c(C2CCCCC2)c2ccc(C(=O)NC3(C(=O)Nc4ccc(/C=C/C(=O)O)c(OC)c4)CCC3)cc21` [Example 1-622, (E)-3-[4-({1-[(13-cyclohexyl-3-ethoxy-5-methyl-6,7-dihydro-5H-benzo[5,6][1,4]diazepino[7,1-a]indole-10-carbonyl)amino]cyclobutanecarbonyl}amino)-2-methoxyphenyl]acrylic acid], for which the IC50 is less than 100 nM.
`CCOc1ccc2c(c1)N(C)CCn1c-2c(C2CCCCC2)c2ccc(C(=O)NC3(C(=O)Nc4ccc(C=CC(=O)O)c(Cl)c4)CCC3)cc21` [Example 1-623, (E)-3-[2-chloro-4-({1-[(13-cyclohexyl-3-ethoxy-5-methyl-6,7-dihydro-5H-benzo[5,6][1,4]diazepino[7,1-a]indole-10-carbonyl)amino]cyclobutanecarbonyl}amino)phenyl]acrylic acid] came in with an IC50 of less than 100 nM.
As for `O=C(O)c1ccc2c(C3CCCCC3)c3n(c2c1)CCOc1cc(OCc2ccccc2)ccc1-3` [Example 2-3, 3-benzyloxy-12-cyclohexyl-6,7-dihydro-5-oxa-7a-azadibenzo[a,e]azulene-9-carboxylic acid], the IC50 was less than 100 nM.
`COc1ccc2c(c1)OCCn1c-2c(C2CCCCC2)c2ccc(C(=O)O)cc21` [Example 2-4, 12-cyclohexyl-3-methoxy-6,7-dihydro-5-oxa-7a-azadibenzo[a,e]azulene-9-carboxylic acid]: the IC50 was less than 100 nM.
`O=C(O)c1ccc2c(C3CCCCC3)c3n(c2c1)CCOc1cc(OCc2cc(N4CCCC4=O)ccc2N2CCOCC2)ccc1-3` [Example 2-5, 12-cyclohexyl-3-[2-(morpholin-4-yl)-5-(2-oxopyrrolidin-1-yl)benzyloxy]-6,7-dihydro-5-oxa-7a-azadibenzo[a,e]azulene-9-carboxylic acid monohydrochloride] gave an IC50 of less than 100 nM.
Compound `COc1ccc2c(c1)-c1c(C3CCCCC3)c3ccc(C(=O)O)cc3n1CCO2` [Example 2-6, 12-cyclohexyl-2-methoxy-6,7-dihydro-5-oxa-7a-azadibenzo[a,e]azulene-9-carboxylic acid] yielded an IC50 of 100 to 1000 nM.
On to `O=C(O)c1ccc2c(C3CCCCC3)c3n(c2c1)CCOc1cc(OCc2ccc(N4CCCC4=O)cc2N2CCOCC2)ccc1-3` [Example 2-9, 12-cyclohexyl-3-[2-(morpholin-4-yl)-4-(2-oxopyrrolidin-1-yl)benzyloxy]-6,7-dihydro-5-oxa-7a-azadibenzo[a,e]azulene-9-carboxylic acid], for which the IC50 was less than 100 nM.
In turn, `CC(C)(C)OC(=O)N1CCC(Oc2ccc3c(c2)OCCn2c-3c(C3CCCCC3)c3ccc(C(=O)O)cc32)CC1` [Example 2-10, 3-(1-tert-butoxycarbonylpiperidin-4-yloxy)-12-cyclohexyl-6,7-dihydro-5-oxa-7a-azadibenzo[a,e]azulene-9-carboxylic acid] returned an IC50 of less than 100 nM.
For `CC(C)(C)OC(=O)N1CCCC(Oc2ccc3c(c2)OCCn2c-3c(C3CCCCC3)c3ccc(C(=O)O)cc32)C1` (stereo not shown) [Example 2-11, 3-(1-tert-butoxycarbonylpiperidin-3-yloxy)-12-cyclohexyl-6,7-dihydro-5-oxa-7a-azadibenzo[a,e]azulene-9-carboxylic acid] the value was less than 100 nM; for `CS(=O)(=O)c1ccc(N2CCOCC2)c(COc2ccc3c(c2)OCCn2c-3c(C3CCCCC3)c3ccc(C(=O)O)cc32)c1` [Example 2-12, 12-cyclohexyl-3-[5-methanesulfonyl-2-(morpholin-4-yl)benzyloxy]-6,7-dihydro-5-oxa-7a-azadibenzo[a,e]azulene-9-carboxylic acid monohydrochloride], less than 100 nM; for `CS(=O)(=O)N1CCN(c2ccc(N3CCCC3=O)cc2COc2ccc3c(c2)OCCn2c-3c(C3CCCCC3)c3ccc(C(=O)O)cc32)CC1` [Example 2-13, 12-cyclohexyl-3-[2-(4-methanesulfonylpiperazin-1-yl)-5-(2-oxopyrrolidin-1-yl)benzyloxy]-6,7-dihydro-5-oxa-7a-azadibenzo[a,e]azulene-9-carboxylic acid monohydrochloride], less than 100 nM.
